Consider 21 compounds from ChEMBL document CHEMBL3351819, “Clofazimine analogs with antileishmanial and antiplasmodial activity” (Bioorg Med Chem, 2015).

Test [1] relates to Plasmodium falciparum. The test is described as follows: Antiplasmodial activity against chloroquine-sensitive Plasmodium falciparum D10 assessed as inhibition of parasite growth after 72 hrs by parasite lactate dehydrogenase assay. The test is classed as functional, organism-based. To be noted: D10, 72 h.
Test [2] in a line: Selectivity index, ratio of IC50 for HMEC1 to IC50 for chloroquine-resistant Plasmodium falciparum W2.
In test [3] the test system is Plasmodium falciparum. The test is described as follows: Resistance index, ratio of IC50 for chloroquine-resistant Plasmodium falciparum W2 to IC50 for chloroquine-sensitive Plasmodium falciparum D10. In kind it is functional.
Test [4] has as its system Plasmodium falciparum. The test is described as follows: Antiplasmodial activity against chloroquine-resistant Plasmodium falciparum W2 assessed as inhibition of parasite growth after 72 hrs by parasite lactate dehydrogenase assay. Conditions: W2, 72 h. The test is classed as functional, organism-based.
Test [5] in a line: Selectivity index, ratio of IC50 for HMEC1 to IC50 for chloroquine-sensitive Plasmodium falciparum D10.
A short description of test [6]: Cytotoxicity against HMEC1 cells after 72 hrs by MTT assay. The test is classed as cell-based. To be noted: Homo sapiens, HMEC-1, 72 h. (In general: Formazan colour is commonly taken as a measure of viable cells.)
Test [7] relates to Leishmania tropica. The test is described as follows: Antileishmanial activity against Leishmania tropica MHOM/IT/2012/ISS3130 promastigotes assessed as inhibition of parasite growth after 72 hrs by MTT assay. In kind it is functional, organism-based. To be noted: MHOM/IT/2012/ISS3130, 72 h.
Test [8] in a line: Selectivity index, ratio of IC50 for HMEC1 to IC50 for Leishmania tropica MHOM/IT/2012/ISS3130.
Test [9] has as its system Leishmania infantum. The test is described as follows: Antileishmanial activity against Leishmania infantum MHOM/TN/80/IPT1 promastigotes assessed as inhibition of parasite growth after 72 hrs by MTT assay. In kind it is functional, organism-based. Conditions: MHOM/TN/80/IPT1, 72 h.
Test [10] can be described thus: Selectivity index, ratio of IC50 for HMEC1 to IC50 for Leishmania infantum MHOM/TN/80/IPT1.

Usually IC50 stands for the midpoint of a concentration-inhibition curve. As to `Cl.c1ccc(Nc2cc3nc4ccccc4n(-c4ccccc4)c-3c/c2=N/CCN2CCCC2)cc1`, the IC50 was 0.18 µM in test [1], 0.11 µM in [4], 1.39 µM in test [6] and 12.3 µM in test [7]. Also, the Ratio IC50 in [2] was 12.6; in test [3] it was 0.6; in test [5], 7.7; in test [8], 0.1.
As for `CN(C)CCC/N=c1/cc2n(-c3ccc(Cl)cc3)c3ccccc3nc-2cc1Nc1cccnc1`, the IC50 is 0.4 µM in test [1]; 0.41 µM in [9]; 0.28 µM in test [4]; 4.66 µM in [6]; 0.77 µM in test [7]. Further, the Ratio IC50 in test [2] came out at 16.6; in [3] it was 0.7; in test [5], 11.7; in test [10] it was 11.4; in [8], 6.1.
Take `Cl.c1ccc(-n2c3c/c(=N/CCCCC45CCCCN4CCCC5)c(Nc4cccnc4)cc-3nc3ccccc32)cc1`: the IC50 in [1] was determined as 0.28 µM; in test [9], 6.02 µM; in test [4] it was 0.21 µM; in test [6], 3.89 µM; in test [7], 2.01 µM. Also, the Ratio IC50 in test [2] amounted to 18.5; in test [3] it was 0.8; in [5] it was 13.9; in test [10], 0.6; in [8] it was 1.9.
In the case of `Cl.Clc1ccc(Nc2cc3nc4ccccc4n(-c4ccc(Cl)cc4)c-3c/c2=N/CCC23CCCN2CCC3)cc1`, the 50% inhibitory concentration (IC50) worked out at 0.19 µM in [1]; 0.3 µM in test [9]; 0.45 µM in [4]; 0.98 µM in test [6]; 0.54 µM in [7]. Besides, the Ratio IC50 in test [2] is 2.2; in test [3] it was 2.4; in test [5], 5.2; in test [10], 3.3; in [8], 1.8.
As for `CC(C)/N=c1\cc2n(-c3ccc(Cl)cc3)c3ccccc3nc-2cc1Nc1ccc(Cl)cc1` [CLOFAZIMINE], the half-maximal inhibitory concentration (IC50) is 4.82 µM in test [1]; 4.48 µM in test [9]; 7.02 µM in [4]; 18.6 µM in [6]; 2.96 µM in [7]. Moreover, the Ratio IC50 in test [2] stood at 2.6; in [3], 1.5; in test [5], 3.9; in [10] it was 4.2; in [8] it was 6.3.
As for `COc1ccc(Nc2cc3nc4ccccc4n(-c4ccccc4)c-3c/c2=N/CCCCC23CCCCN2CCCC3)cn1.Cl`, the half-maximal inhibitory concentration (IC50) came to 0.81 µM in test [1]; 4.44 µM in [9]; 0.35 µM in test [4]; 6.32 µM in [6]; 2.32 µM in test [7]. In addition, the Ratio IC50 in [2] was determined as 18.1; in [3], 0.4; in test [5], 7.8; in test [10], 1.4; in test [8], 2.7.
`C[N+]12CCCCC1(CCCC/N=c1/cc3n(-c4ccccc4)c4ccccc4nc-3cc1Nc1ccccc1)CCCC2.[I-]` (configuration not stated): the half-maximal inhibitory concentration (IC50) in test [1] worked out at 0.19 µM; in [9], 2.67 µM; in test [4], 0.27 µM; in test [6], 11.1 µM; in [7], 1.09 µM. For the same compound, the Ratio IC50 in [2] amounted to 41; in [3], 1.4; in test [5], 58.2; in test [10], 4.1; in test [8], 10.1.
Turning to `c1ccc(Nc2cc3nc4ccccc4n(-c4ccccc4)c-3c/c2=N/CC[C@@H]2CCCN3CCCC[C@H]23)cc1`, the figures for the IC50 in test [1] and in [4] were 0.18 µM and 0.27 µM, respectively. Moreover, in test [3], the “Ratio IC50” value stood at 1.5.
`c1ccc(Nc2cc3nc4ccccc4n(-c4ccccc4)c-3c/c2=N/C[C@@H]2CCCN3CCCC[C@H]23)cc1`: the IC50 came to 0.37 µM in test [1] and 0.81 µM in test [4]. For the same compound, in test [3], the “Ratio IC50” value was 2.2.
For the compound `CCN(CC)CCCC(C)Nc1ccnc2cc(Cl)ccc12` (configuration not stated) [CHLOROQUINE], in test [6], the half-inhibitory concentration (IC50) is > 38 µM.
On to `Cl.c1ccc(Nc2cc3nc4ccccc4n(-c4ccccc4)c-3c/c2=N/CCC23CCCN2CCC3)cc1`, for which the IC50 was determined as 0.34 µM in test [1]; 0.91 µM in [9]; 0.29 µM in [4]; 1.9 µM in test [6]; 1.1 µM in test [7]. In addition, the Ratio IC50 was 6.5 in [2]; 0.9 in test [3]; 5.5 in test [5]; 2.1 in test [10]; 1.7 in [8].
As for `Cl.Fc1ccc(Nc2cc3nc4ccccc4n(-c4ccc(F)cc4)c-3c/c2=N/CCCCCCC23CCCCN2CCCC3)cc1`, the IC50 in test [1] amounted to 0.28 µM; in test [9], 0.43 µM; in test [4] it was 0.34 µM; in [6] it was 1.87 µM; in test [7], 0.33 µM. Further, the Ratio IC50 in [2] came to 5.5; in test [3], 1.2; in [5], 6.7; in test [10], 4.3; in [8] it was 5.5.
As to `Cl.Clc1ccc(-n2c3c/c(=N/CCCCC45CCCCN4CCCC5)c(Nc4cccnc4)cc-3nc3ccccc32)cc1`, the IC50 in test [1] worked out at 0.22 µM; in test [9] it was 0.34 µM; in test [4] it was 0.18 µM; in [6], 2.33 µM; in [7], 0.34 µM. Besides, the Ratio IC50 is 12.9 in test [2]; 0.8 in test [3]; 10.6 in test [5]; 6.9 in test [10]; 6.9 in test [8].
Consider `Cc1ccc(Nc2cc3nc4ccccc4n(-c4ccc(C)cc4)c-3c/c2=N/C[C@@H]2CCCN3CCCC[C@H]23)cc1.Cl`, for which the IC50 in [1] stood at 0.21 µM; in test [9], 0.46 µM; in [4] it was 0.4 µM; in [6], 1.57 µM; in test [7], 0.47 µM. Further, the Ratio IC50 in test [2] is 3.9; in test [3], 1.9; in [5] it was 7.5; in [10], 3.4; in test [8], 3.3.
Turning to `Cl.Fc1ccc(Nc2cc3nc4ccccc4n(-c4ccc(F)c(Cl)c4)c-3c/c2=N/CCCCCCC23CCCCN2CCCC3)cc1Cl`, the IC50 was found to be 0.31 µM in test [1]; 0.35 µM in [9]; 0.57 µM in [4]; 1.35 µM in [6]; 0.24 µM in [7]. Further, the Ratio IC50 in test [2] was 2.4; in [3], 1.9; in test [5], 4.4; in test [10] it was 3.9; in test [8], 5.5.
For the compound `Cl.Clc1ccc(Nc2cc3nc4ccccc4n(-c4ccc(Cl)cc4)c-3c/c2=N/CC23CCCN2CCC3)cc1`, the IC50 was determined as 0.62 µM in test [1], 0.75 µM in [4], 3.57 µM in test [6] and 7.44 µM in [7]. The Ratio IC50 in test [2] worked out at 4.8; in test [3], 1.2; in test [5], 5.8; in test [8], 0.5.
On to `c1ccc(Nc2cc3nc4ccccc4n(-c4ccccc4)c-3c/c2=N/C[C@H]2CCCN3CCCC[C@H]23)cc1`, for which the IC50 was 0.14 µM in [1] and 0.24 µM in test [4]. In test [3], the “Ratio IC50” value came out at 1.7.
`c1ccc(Nc2cc3nc4ccccc4n(-c4ccccc4)c-3c/c2=N/CCC[C@@H]2CCCN3CCCC[C@H]23)cc1`: the IC50 in test [1] worked out at 0.12 µM; in test [9], 1.59 µM; in test [4], 0.063 µM; in [6], 4.5 µM; in [7] it was 2.7 µM. The Ratio IC50 in test [2] was determined as 71.4; in test [3], 0.5; in [5], 36.6; in test [10] it was 2.8; in test [8], 1.7.
Consider `Clc1ccc(Nc2cc3nc4ccccc4n(-c4ccc(Cl)cc4)c-3c/c2=N/C[C@@H]2CCCN3CCCC[C@H]23)cc1`, for which the IC50 in test [1] was found to be 0.45 µM; in test [4] it was 0.96 µM. Moreover, the “Ratio IC50” value in test [3] is reported as 2.1.
Turning to `Cl.Fc1ccc(Nc2cc3nc4ccccc4n(-c4ccc(F)cc4)c-3c/c2=N/CCCCC23CCCCN2CCCC3)cc1`, the IC50 came to 0.24 µM in test [1]; 0.48 µM in [9]; 0.39 µM in test [4]; 1.96 µM in test [6]; 0.84 µM in test [7]. Also, the Ratio IC50 in [2] was determined as 5; in test [3], 1.6; in [5], 8.2; in test [10], 4.1; in test [8], 2.3.
As for `Cl.c1ccc(Nc2cc3nc4ccccc4n(-c4ccccc4)c-3c/c2=N/CC23CCCN2CCC3)cc1`, the IC50 worked out at 0.64 µM in test [1], 0.44 µM in [4], 2.65 µM in test [6] and 9.85 µM in test [7]. Also, the Ratio IC50 in test [2] came out at 6; in [3], 0.7; in test [5], 4.1; in [8], 0.3.
